“And” between values parts separate entries of the source, which are not always exact repeats. Identical values can stand only once. Like-named read-outs stand apart in the source and are kept apart here.
How the values were obtained:
[1] = system: cell-free vesicular stomatitis virus (VSV); assay type: cell-based
bacteriophage M13 = assay type: cell-based
[2] = system: encephalomyocarditis virus (EMC); assay type: cell-based
platelets [3] = experiment: Platelet aggregation in response to collagen after treatment of platelet concentrate; assay type: cell-based; details: for % Untreated Control - Extent of Aggregation Response to Collagen, untreated / % Untreated Control - Rate of Aggregation Response to Collagen, untreated: flavonoid present, no AMT/UVA treatment; for agg response: Platelet Conc., 50 μg/ml AMT + 57 J/cm^2 UVA; for Aggregation Response % Control / aggregation response to collagen / Agqregation Response % control: platelet conc.; for Aggregation Response % Control / Agqregation Response % control: 25 μg/ml AMT; for aggregation response to collagen: 100 μg/ml AMT
cell-associated VSV = assay type: cell-based, vesicular stomatitis virus
lymphocytes = experiment: Lymphocyte inactivation, 3H thymidine uptake after mitogen stimulation; assay type: cell-based; details: 15 Gy γ-irradiation
platelets [4] = experiment: Platelet aggregation response to arachidonic acid and ADP after γ-irradiation of PCs; assay type: cell-based; details: 2 mM rutin
platelets [5] = experiment: Survival of infused radiolabeled UVB-irradiated platelets; assay type: in vivo, dogs; details: dog PCs, 36 mJ/cm^2 UVB in presence of 2 mM rutin, 51chromium label
RBCCs = experiment: Extracellular (plasma) potassium of stored RBCCs
[6] = system: red blood cell concentrate; experiment: Red cell hemolysis after X-irradiation of red blood cell concentrate; details: brominated hematoporphyrin derivative, 1 mm rutin
[7] = system: cell-free vesicular stomatitis virus (VSV); details: cited from earlier work
[8] = 25 μg/ml AMT and 90 minutes of UVA in presence of flavonoid, overnight storage
[9] = 50 μg/ml AMT, 90 minute UVA, air, +0.5 mM Rutin, experiments 1-5
[10] = 7.5 mW/cm^2 UVA 30 min, quencher 2 mM
[11] = 7.5 mW/cm^2 UVA 30 min, quencher 4 mM
[12] = 7.5 mW/cm^2 UVA 30 min, quencher 10 mM
[13] = 7.5 mW/cm^2 UVA 30 min, quencher 50 mM
[14] = 7.5 mW/cm^2 UVA 60 min, quencher 2 mM
[15] = 7.5 mW/cm^2 UVA 60 min, quencher 4 mM
[16] = 7.5 mW/cm^2 UVA 60 min, quencher 10 mM
[17] = 7.5 mW/cm^2 UVA 60 min, quencher 50 mM
[18] = 7.5 mW/cm^2 UVA 90 min, quencher 4 mM
[19] = 7.5 mW/cm^2 UVA 90 min, quencher 2 mM
[20] = 25 μg/ml AMT and 90 minutes of UVA, no flavonoid

## O=C1O[C@H]([C@@H](O)CO)C(O)=C1O [Ascorbate, ascorbate]
[1]
  Virus Kill (log10) VSV: ≧6.5 log10
Bacteriophage M13
  Virus Kill (log10) M13: 4.7 log10
[2]
  Virus Kill (log10) EMC: ≧7.7 log10

## O=c1c(O)c(-c2ccc(O)c(O)c2)oc2cc(O)cc(O)c12 [quercetin]
Platelets [3]; [8]
  % Untreated Control - Extent of Aggregation Response to Collagen, treated: 98/98 % Untreated Control
  % Untreated Control - Rate of Aggregation Response to Collagen, treated: 98/98 % Untreated Control
Platelets [3]; overnight storage
  % Untreated Control - Extent of Aggregation Response to Collagen, untreated: 100/100 % Untreated Control
  % Untreated Control - Rate of Aggregation Response to Collagen, untreated: 100/100 % Untreated Control
[1]
  Virus Kill (log10) VSV: ≧6.5 log10
cell-associated VSV
  inactivation of cell-associated VSV: ~6 log10
Bacteriophage M13
  Virus Kill (log10) M13: 5.0 log10
[2]
  Virus Kill (log10) EMC: ≧7.7 log10

## C[C@@H]1O[C@@H](OC[C@H]2O[C@@H](Oc3c(-c4ccc(O)c(O)c4)oc4cc(O)cc(O)c4c3=O)[C@H](O)[C@@H](O)[C@@H]2O)[C@H](O)[C@H](O)[C@H]1O [rutin]
Platelets [3]; [8]
  % Untreated Control - Extent of Aggregation Response to Collagen, treated: 100/100 % Untreated Control
  % Untreated Control - Rate of Aggregation Response to Collagen, treated: 100/100 % Untreated Control
Platelets [3]; [9]
  Platelet aggregation, first value of pair (extent as in Table III): 95 and 96/96 and 100 and 100/100 and 98
  Platelet aggregation, second value of pair (rate as in Table III): 90 and 96/96 and 84 and 100/100 and 95
Platelets [3]; 0.35 mM rutin
  agg response: 85%
Platelets [3]; overnight storage
  % Untreated Control - Extent of Aggregation Response to Collagen, untreated: 100/100 % Untreated Control
  % Untreated Control - Rate of Aggregation Response to Collagen, untreated: 100/100 % Untreated Control
Platelets [3]; platelet conc., 25, 50 or 100 μg/ml AMT, 90 min UVA, 0.7 mM rutin
  aggregation function: more than 80 % of the control
[1]
  LOG10 VIRUS KILL VSV: ≧6 LOG10
  Virus Kill (log10) VSV: ≧5.4 log10
  kill of VSV: exceeded 5 log10
cell-associated VSV
  inactivation of cell-associated VSV: ~6 log10
Bacteriophage M13
  LOG10 VIRUS KILL M13: 6 LOG10 and 3 LOG10 and 5 LOG10
[2]
  Virus Kill (log10) EMC: ≧7.7 log10
lymphocytes; PCs, independent of presence or concentration of rutin
  3H thymidine uptake retained by irradiated lymphocytes: 1.5%
lymphocytes; RBCCs, independent of presence or concentration of rutin (0.5, 1 or 2 mM)
  3H thymidine uptake retained by irradiated lymphocytes: 1.5%
Platelets [4]; 50 Gy γ-irradiation, 3 day storage
  rate of aggregation: 80 % of the control
Platelets [4]; γ-irradiation 15-50 Gy, after 1 day
  Platelet aggregation: 95%
Platelets [5]
  Survival of UV-exposed donor platelets: 5 days
RBCCs; RBCC, AlPcS4 treatment then γ-irradiation 25 Gy, rutin present during γ-irradiation and storage, 2 days
  plasma K+: 25 mM
RBCCs; RBCC, AlPcS4 treatment then γ-irradiation 25 Gy, rutin present during γ-irradiation and storage, 7 days
  plasma K+: 40 mM
RBCCs; RBCCs, 50 Gy γ-irradiation, 2 mM rutin present during treatment
  plasma K+: 40 mM
RBCCs; RBCCs, γ-irradiation, 2 mM rutin
  Extracellular potassium: decreased to control levels
[6]
  red cell hemolysis: less than 2%

## Superoxide Dismutase
Platelets [3]; 7.5 mW/cm^2 UVA 30 min, quencher 20 μg/ml
  Aggregation Response % Control: 85 % Control
Platelets [3]; 7.5 mW/cm^2 UVA 30 min, quencher 100 μg/ml
  Aggregation Response % Control: 75 % Control
Platelets [3]; 7.5 mW/cm^2 UVA 60 min, quencher 20 μg/ml
  Aggregation Response % Control: 50 % Control
Platelets [3]; 7.5 mW/cm^2 UVA 60 min, quencher 100 μg/ml
  Aggregation Response % Control: 45 % Control
Platelets [3]; 7.5 mW/cm^2 UVA 90 min, quencher 20 μg/ml
  Aggregation Response % Control: 30 % Control
[1]
  Virus Inactivation (log10) Cell-Free VSV: ≧6.0 log10
Bacteriophage M13
  Virus Kill (log10) M13: 3.9 log10

## OCC(O)CO [Glycerol, glycerol]
Platelets [3]; [10]
  Aggregation Response % Control: 90 % Control
Platelets [3]; [11]
  Aggregation Response % Control: 95 % Control
Platelets [3]; [12]
  Aggregation Response % Control: 80 % Control
Platelets [3]; [13]
  Aggregation Response % Control: 85 % Control
Platelets [3]; [14]
  Aggregation Response % Control: 50 % Control
Platelets [3]; [15]
  Aggregation Response % Control: 55 % Control
Platelets [3]; [16]
  Aggregation Response % Control: 50 % Control
Platelets [3]; [17]
  Aggregation Response % Control: 50 % Control
Platelets [3]; [18]
  Aggregation Response % Control: 35 % Control
Bacteriophage M13
  Virus Kill (log10) M13: 6.6 log10

## aluminum phthalocyanine tetrasulfonate [AlPcS4]
RBCCs; RBCC, 6.5 μM AlPcS4 + 44 J/cm^2 visible light + 4 mM GSH, with γ-irradiation 25 Gy, no rutin, 2 days
  plasma K+: 75 mM
RBCCs; RBCC, 6.5 μM AlPcS4 + 44 J/cm^2 visible light + 4 mM GSH, without γ-irradiation, 2 days
  plasma K+: 60 mM

## N[C@@H](CCC(=O)N[C@@H](CS)C(=O)NCC(=O)O)C(=O)O [Glutathione, glutathione]
Platelets [3]; [10]
  Aggregation Response % Control: 80 % Control
Platelets [3]; [11]
  Aggregation Response % Control: 80 % Control
Platelets [3]; [12]
  Aggregation Response % Control: 75 % Control
Platelets [3]; [14]
  Aggregation Response % Control: 60 % Control
Platelets [3]; [15]
  Aggregation Response % Control: 55 % Control
Platelets [3]; [19]
  Aggregation Response % Control: 40 % Control
Platelets [3]; [18]
  Aggregation Response % Control: 25 % Control
[1]
  Virus Inactivation (log10) Cell-Free VSV: ≧6.0 log10
Bacteriophage M13
  Virus Kill (log10) M13: 4.4 log10

## OC[C@@H](O)[C@@H](O)[C@H](O)[C@H](O)CO [Mannitol, mannitol]
Platelets [3]; [10]
  Aggregation Response % Control: 95 % Control
Platelets [3]; [11]
  Aggregation Response % Control: 95 % Control
Platelets [3]; [12]
  Aggregation Response % Control: 91 % Control
Platelets [3]; [13]
  Aggregation Response % Control: 85 % Control
Platelets [3]; [14]
  Aggregation Response % Control: 60 % Control
Platelets [3]; [15]
  Aggregation Response % Control: 58 % Control
Platelets [3]; [16]
  Aggregation Response % Control: 56 % Control
Platelets [3]; [17]
  Aggregation Response % Control: 55 % Control
Platelets [3]; [19]
  Aggregation Response % Control: 32 % Control
Platelets [3]; 7.5 mW/cm^2 UVA 90 min, quencher 50 mM
  Aggregation Response % Control: 30 % Control
Platelets [3]; 90 min UVA, 2 mM mannitol
  aggregation response to collagen: no response at all
Bacteriophage M13
  Virus Kill (log10) M13: 6.6 log10

## N[C@@H](Cc1c[nH]cn1)C(=O)O [Histidine, histidine]
Platelets [3]; 11 mW/cm^2 UVA 30 min, quencher 5 mM
  Agqregation Response % control: 75 % control
Platelets [3]; 11 mW/cm^2 UVA 30 min, quencher 10 mM
  Agqregation Response % control: 65 % control
Platelets [3]; 11 mW/cm^2 UVA 60 min, quencher 5 mM
  Agqregation Response % control: 55 % control
Platelets [3]; 11 mW/cm^2 UVA 90 min, quencher 5 mM
  Agqregation Response % control: 35 % control
[1]
  Virus Kill (log10) Cell-free VSV: 5.1 log10 and 4.8 log10
Bacteriophage M13
  Virus Kill (log10) M13: 4.0 log10

## Cc1oc2c(C)c3oc(=O)cc(C)c3cc2c1CN [AMT, 4′-aminomethyl-4,5′,8-trimethylpsoralen]
Platelets [3]; [20]
  % Untreated Control - Extent of Aggregation Response to Collagen, treated: 44 % Untreated Control
  % Untreated Control - Rate of Aggregation Response to Collagen, treated: 24 % Untreated Control
Platelets [3]; quencher none
  agg response: ≤ 30%
Platelets [3]; 7.5 mW/cm^2 UVA 60 min, no quencher
  Aggregation Response % Control: 52 % Control
Platelets [3]; 7.5 mW/cm^2 UVA 90 min, no quencher
  Aggregation Response % Control: 35 % Control
Platelets [3]; 11 mW/cm^2 UVA 30 min, no quencher
  Agqregation Response % control: 75 % control
Platelets [3]; 11 mW/cm^2 UVA 60 min, no quencher
  Agqregation Response % control: 52 % control
Platelets [3]; 90 min UVA, no quencher
  aggregation response to collagen: no response at all
[1]
  LOG10 VIRUS KILL VSV: ≧6 LOG10
  inactivation of cell-free VSV: completely inactivated
Bacteriophage M13
  LOG10 VIRUS KILL M13: 3 LOG10 and 5 LOG10
  inactivation of bacteriophage M13: at least 4 log 10
[7]
  inactivation of cell-free VSV: ≥ 6.0 log10

From patent publication US6548242B2, “Process for the sterilization of biological compositions and the product thereby” (priority 1990, dated 2003)
